Measured values reported in US20140113877A1, “NOVEL 3,4,4A,10B-TETRAHYDRO-1H-THIOPYRANO[4,3-C] ISOQUINOLINE COMPOUNDS” (Takeda GmbH, priority 2011, published 2014).

Tests used:
human PDE5 = target: T1, human PDE5 (Homo sapiens, UniProt O76074); experiment: Inhibition of PDE5 activity (SPA, [3H]cGMP, platelet lysate); format: biochemical; conditions: 0.5 μM cGMP, binned: below 8 / between 8 and 9, read-out: PDE5 inhibitory values measured as −logIC50 (converted)
T1 construct: from tissue; host or cells: human platelets from fresh donor blood (platelet lysate)
Description: As a source for human PDE5, platelets were used. For that purpose, 150 ml fresh blood from human donors anticoagulated with citrate [final concentration 0.3% (w/v)] was centrifuged at 200 g for 10 min to obtain the so-called platelet-rich-plasma (PRP) as a supernatant. 1/10 volume of ACD solution (85 mM Na3-citrate, 111 mM D-glucose, 71 mM citric acid, pH 4.4) was added to 9/10 volume of PRP. After centrifugation (1,400 g, 10 min) the cell pellet was resuspended in 3 ml homogenization buffer (NaCl 140 mM, KCl 3.8 mM, EGTA (ethylene glycol tetraacetic acid) 1 mM, MgCl2 1 mM, Tris-HCl 20 mM, beta-mercaptoethanol 1 mM, pH 8.2) plus protease-inhibitor mix resulting in final concentrations of 0.5 mM Pefablock (Roche), 10 μM Leupeptin, 5 μM Trypsine inhibitor, 2 mM Benzamidin and 10 μM Pepstatin A. The suspension was sonicated and thereafter centrifuged for 15 min at 10,000 g. The resulting supernatant (platelet lysate) was used for enzymatic assays.
PDE5 activities were measured in a 96-well platform using SPA (scintillation proximity assay) yttrium silicate beads (RPNQ1050 from GE Healthcare). In a first step the PDE activity operated hydrolysis of either [^3H] cGMP (substrate) into [^3H] 5′GMP. In a second step substrate and product were distinguished following addition of SPA yttrium silicate beads. Indeed, in the presence of zinc sulphate the linear [^3H] […] Close proximity of bound [^3H] […] The test volume was 100 μl and contained 20 mM Tris buffer (pH 7.4), 0.1 mg of BSA (bovine serum albumin)/ml, 5 mM Mg^2+, 1 μM motapizone (PDE3 Inhibitor), 10 nM PDE2 inhibitor 2-(3,4-dimethoxybenzyl)-7-[(1R,2R)-2-hydroxy-1-(2-phenylethyl)propyl]-5-methylimidazo[5,1-f][1,2,4]triazin-4(3H)-one, 0.5 μM cGMP (cyclic guanosine monophosphate) (including about 50,000 cpm of [3H]cGMP as a tracer) (substrate), 1 μl of the respective compound dilution in dimethylsulfoxide (DMSO) and sufficient PDE5-containing platelet lysat (10,000×g supernatant, see above) to ensure that 10-20% of the cGMP was converted under the said experimental conditions. […] After a preincubation of 5 min at 37° C., the reaction was commenced by adding the substrate (cGMP) and the assay was incubated for a further 15 min. The reaction was terminated by adding SPA beads (50 μl). In agreement with the manufacturer's instructions, the SPA beads had previously been resuspended in water, but were then diluted 1:3 (v/v) in water. This diluted solution also contained 3 mM 8-methoxymethyl-3-isobutyl-1-methylxanthine (IBMX) to ensure a complete block of PDE activity. Once the beads were sedimented (>30 min), the MTP's were analyzed in commercially available luminescence detection devices. The corresponding IC50 values of the compounds for inhibition of PDE activity were determined from the concentration-effect curves by means of non-linear regression.
For the following compounds PDE5 inhibitory values [measured as −logIC50 (mol/l)] below 8 and between 8 and 9 have been determined. The numbers of the compounds correspond to the numbers of the examples.

PDE4B1 = target: T2, PDE4B1 (Homo sapiens, UniProt Q07343); experiment: Inhibition of PDE4B1 activity (SPA, [3H]cAMP); format: biochemical; conditions: recombinant PDE4B1, 0.5 μM cAMP; binned: below 8 / between 8 and 9; read-out: PDE4B1 inhibitory values measured as −logIC50 (converted)
T2 construct: made in house; host or cells: SF21 insect cells (baculovirus; virus prepared in SF9 cells)
Description: The PDE4B1 (GB no. L20966) was a gift of Prof. M. Conti (Stanford University, USA). It was amplified from the original plasmid (pCMV5) via PCR with primers Rb18 (5′-[…]-3′) and Rb10 (5′-[…]-3′) and cloned into the pCR-Bac vector (Invitrogen, Groningen, NL).
The recombinant baculovirus was prepared by means of homologous recombination in SF9 insect cells. The expression plasmids were cotransfected with Baculo-Gold DNA (Pharmingen, Hamburg) using a standard protocol (Pharmingen, Hamburg). Wt virus-free recombinant virus supernatants were selected using plaque assay methods. After that, high-titre virus supernatants were prepared by amplifying 3 times. PDE4B1 was expressed in SF21 cells by infecting 2×10^6 cells/ml with an MOI (multiplicity of infection) between 1 and 10 in the serum-free SF900 medium (GIBCO Life Technologies, Karlsruhe, Germany). The cells were cultured at 28° C. for 48-72 hours, after which they were pelleted for 5-10 min at 1000×g and 4° C.
The SF21 insect cells were resuspended, at a concentration of approx. 10^7 cells/ml, in ice-cold (4° C.) homogenization buffer (20 mM Tris, pH 8.2, containing the following additions: 140 mM NaCl, 3.8 mM KCl, 1 mM EGTA, 1 mM MgCl2, 10 mM β-mercaptoethanol, 2 mM benzamidine, 0.4 mM Pefablock, 10 μM leupeptin, 10 μM pepstatin A, 5 μM trypsin inhibitor) and disrupted by ultrasonication. The homogenate was then centrifuged for 10 min at 1000×g and the supernatant was stored at −80° C. until subsequent use (see below). The protein content was determined by the Bradford method (BioRad, Munich) using BSA (Bovine serum albumin) as the standard.
PDE4B1 activities were measured in a 96-well platform using SPA (scintillation proximity assay) yttrium silicate beads (RPNQ1050 from GE Healthcare). In a first step the PDE activity operated hydrolysis of either [^3H] cAMP (substrate) into [^3H] 5′AMP. In a second step substrate and product were distinguished following addition of SPA yttrium silicate beads. Indeed, in the presence of zinc sulphate the linear [^3H] […] Close proximity of bound [^3H] […] The test volume was 100 μl and finally contained 20 mM Tris buffer (pH 7.4), 0.1 mg/ml of BSA, 5 mM Mg^2+, 0.5 μM cAMP (including about 50,000 cpm of [3H]cAMP) as substrate, 1 μl of the respective substance dilution in DMSO and sufficient recombinant PDE (1000×g supernatant, see above) to ensure that 10-20% of the cAMP was converted under the said experimental conditions. […] After a preincubation of 5 min at 37° C., the reaction was commenced by adding the substrate (cAMP) and the assays were incubated for a further 15 min. Reactions were terminated by adding SPA beads (50 μl). In agreement with the manufacturer's instructions, the SPA beads had previously been resuspended in water, but were then diluted 1:3 (v/v) in water. This diluted solution further contained 3 mM IBMX (isobutylmethylxanthine) to ensure a complete block of PDE activity. Once the beads were sedimented (>30 min), the MTP's (microtiter plate) were analyzed in commercially available luminescence detection devices. The corresponding IC50 values of the compounds for inhibition of PDE4B1 activity were determined from the concentration-effect curves by means of non-linear regression.
For the following compounds PDE4B1 inhibitory values [measured as −logIC50 (mol/l)] below 8 and between 8 and 9 have been determined. The numbers of the compounds correspond to the numbers of the examples.

T2 sequence (Q07343 whole entry): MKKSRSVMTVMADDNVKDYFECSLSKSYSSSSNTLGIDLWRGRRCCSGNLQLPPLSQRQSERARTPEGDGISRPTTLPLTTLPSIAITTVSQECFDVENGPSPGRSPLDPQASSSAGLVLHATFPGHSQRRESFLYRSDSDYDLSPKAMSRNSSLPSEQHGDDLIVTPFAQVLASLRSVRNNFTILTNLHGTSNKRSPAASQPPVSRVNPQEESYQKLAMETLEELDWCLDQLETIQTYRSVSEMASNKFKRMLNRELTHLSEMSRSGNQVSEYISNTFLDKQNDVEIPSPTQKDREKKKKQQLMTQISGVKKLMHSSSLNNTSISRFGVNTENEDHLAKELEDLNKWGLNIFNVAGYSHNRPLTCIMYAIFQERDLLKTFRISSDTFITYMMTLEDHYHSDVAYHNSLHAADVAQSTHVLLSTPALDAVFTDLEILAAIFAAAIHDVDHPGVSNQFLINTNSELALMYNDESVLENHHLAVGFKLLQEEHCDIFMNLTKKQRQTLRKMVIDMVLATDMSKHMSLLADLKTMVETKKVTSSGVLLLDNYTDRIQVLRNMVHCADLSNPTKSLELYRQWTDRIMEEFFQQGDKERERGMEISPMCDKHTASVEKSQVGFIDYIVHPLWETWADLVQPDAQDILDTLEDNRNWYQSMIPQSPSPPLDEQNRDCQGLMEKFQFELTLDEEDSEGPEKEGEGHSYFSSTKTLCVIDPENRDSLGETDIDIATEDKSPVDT

IC50 (human PDE5) | IC50 (PDE4B1) | SMILES
1 to 10 nM | 1 to 10 nM | CCOc1cc2c(cc1OC)C(c1ccc(C(=O)N3CCC(n4c(=O)c5sc(-c6cc(F)ccc6OC)cc5n(Cc5ccc(OC)c(F)c5)c4=O)CC3)cc1)=N[C@@H]1CCSC[C@H]21 [Example 10, 3-[1-({4-[(4aR,10bR)-9-ethoxy-8-methoxy-3,4,4a,10b-tetrahydro-1H-thiopyrano[4,3-c]isoquinolin-6-yl]phenyl}carbonyl)piperidin-4-yl]-1-(3-fluoro-4-methoxybenzyl)-6-(5-fluoro-2-methoxyphenyl)thieno[3,2-d]pyrimidine-2,4(1H,3H)-dione]
1 to 10 nM | 1 to 10 nM | CCOc1cc2c(cc1OC)C(c1ccc(C(=O)N3CCC(n4c(=O)c5sc(-c6ccccc6F)cc5n(Cc5ccc(OC)c(F)c5)c4=O)CC3)cc1)=N[C@@H]1CCSC[C@H]21 [Example 12, 3-[1-({4-[(4aR,10bR)-9-ethoxy-8-methoxy-3,4,4a,10b-tetrahydro-1H-thiopyrano[4,3-c]isoquinolin-6-yl]phenyl}carbonyl)piperidin-4-yl]-1-(3-fluoro-4-methoxybenzyl)-6-(2-fluorophenyl)thieno[3,2-d]pyrimidine-2,4(1H,3H)-dione]
1 to 10 nM | 1 to 10 nM | CCOc1cc2c(cc1OC)C(c1ccc(C(=O)N3CCC(n4c(=O)c5sc(-c6ccc(F)cc6)cc5n(Cc5ccc(OC)c(F)c5)c4=O)CC3)cc1)=N[C@@H]1CCSC[C@H]21 [Example 13, 3-[1-({4-[(4aR,10bR)-9-ethoxy-8-methoxy-3,4,4a,10b-tetrahydro-1H-thiopyrano[4,3-c]isoquinolin-6-yl]phenyl}carbonyl)piperidin-4-yl]-1-(3-fluoro-4-methoxybenzyl)-6-(4-fluorophenyl)thieno[3,2-d]pyrimidine-2,4(1H,3H)-dione]
1 to 10 nM | 1 to 10 nM | CCOc1cc2c(cc1OC)C(c1ccc(C(=O)N3CCC(n4c(=O)c5sc(-c6ccc(F)cc6OC)cc5n(Cc5ccc(C)c(F)c5)c4=O)CC3)cc1)=N[C@@H]1CCSC[C@H]21 [Example 16, 3-[1-({4-[(4aR,10bR)-9-ethoxy-8-methoxy-3,4,4a,10b-tetrahydro-1H-thiopyrano[4,3-c]isoquinolin-6-yl]phenyl}carbonyl)piperidin-4-yl]-6-(4-fluoro-2-methoxyphenyl)-1-(3-fluoro-4-methylbenzyl)thieno[3,2-d]pyrimidine-2,4(1H,3H)-dione]
1 to 10 nM | > 10 nM | CCOc1cc2c(cc1OC)C(c1ccc(C(=O)N3CCC(n4c(=O)c5sc(-c6ccc(F)cc6C)cc5n(Cc5ccc(OC)c(F)c5)c4=O)CC3)cc1)=N[C@@H]1CCSC[C@H]21 [Example 18, 3-[1-({4-[(4aR,10bR)-9-ethoxy-8-methoxy-3,4,4a,10b-tetrahydro-1H-thiopyrano[4,3-c]isoquinolin-6-yl]phenyl}carbonyl)piperidin-4-yl]-1-(3-fluoro-4-methoxybenzyl)-6-(4-fluoro-2-methylphenyl)thieno[3,2-d]pyrimidine-2,4(1H,3H)-dione]

The remaining lines, values behind:

SMILES | IC50 (human PDE5) | IC50 (PDE4B1)
CCOc1cc2c(cc1OC)C(c1ccc(C(=O)N3CCC(n4c(=O)c5sc(-c6cc(OC)ccc6OC)cc5n(Cc5ccc(OC)c(F)c5)c4=O)CC3)cc1)=N[C@@H]1CCSC[C@H]21 [Example 11, 6-(2,5-dimethoxyphenyl)-3-[1-({4-[(4aR,10bR)-9-ethoxy-8-methoxy-3,4,4a,10b-tetrahydro-1H-thiopyrano[4,3-c]isoquinolin-6-yl]phenyl}carbonyl)piperidin-4-yl]-1-(3-fluoro-4-methoxybenzyl)thieno[3,2-d]pyrimidine-2,4(1H,3H)-dione] | 1 to 10 nM | 1 to 10 nM
CCOc1cc2c(cc1OC)C(c1ccc(C(=O)N3CCC(n4c(=O)c5sc(-c6ccc(F)cc6OC)cc5n(Cc5cc(F)c(OC)c(F)c5)c4=O)CC3)cc1)=N[C@@H]1CCSC[C@H]21 [Example 14, 1-(3,5-difluoro-4-methoxybenzyl)-3-[1-({4-[(4aR,10bR)-9-ethoxy-8-methoxy-3,4,4a,10b-tetrahydro-1H-thiopyrano[4,3-c]isoquinolin-6-yl]phenyl}carbonyl)piperidin-4-yl]-6-(4-fluoro-2-methoxyphenyl)thieno[3,2-d]pyrimidine-2,4(1H,3H)-dione] | 1 to 10 nM | > 10 nM
CCOc1cc2c(cc1OC)C(c1ccc(C(=O)N3CCC(n4c(=O)c5sc(-c6ccc(F)cc6OC)cc5n(Cc5ccc(OC)c(F)c5F)c4=O)CC3)cc1)=N[C@@H]1CCSC[C@H]21 [Example 15, 1-(2,3-difluoro-4-methoxybenzyl)-3-[1-({4-[(4aR,10bR)-9-ethoxy-8-methoxy-3,4,4a,10b-tetrahydro-1H-thiopyrano[4,3-c]isoquinolin-6-yl]phenyl}carbonyl)piperidin-4-yl]-6-(4-fluoro-2-methoxyphenyl)thieno[3,2-d]pyrimidine-2,4(1H,3H)-dione] | > 10 nM | 1 to 10 nM
CCOc1cc2c(cc1OC)C(c1ccc(C(=O)N3CCC(n4c(=O)c5sc(-c6ccc(F)cc6OC)cc5n(Cc5ccccc5)c4=O)CC3)cc1)=N[C@@H]1CCSC[C@H]21 [Example 17, 1-benzyl-3-[1-({4-[(4aR,10bR)-9-ethoxy-8-methoxy-3,4,4a,10b-tetrahydro-1H-thiopyrano[4,3-c]isoquinolin-6-yl]phenyl}carbonyl)piperidin-4-yl]-6-(4-fluoro-2-methoxyphenyl)thieno[3,2-d]pyrimidine-2,4(1H,3H)-dione] | > 10 nM | 1 to 10 nM
